This is an account of results in patent publication US8901129B2, “Methods of facilitating neural cell survival using GDNF family ligand (GFL) mimetics or RET signaling pathway activators” (GeneCode AS, priority 2009, dated 2014).

The test system of series [1] is MG87RET murine fibroblasts. Nature of the series: Cell viability, CelTiterGlo (FIG. 8). It counts as cell-based. Particulars: concentrations above 2 μM, 48 hours. The protocol:
The test compounds were transferred into in 384-well culture plate using Echo acoustic dispenser (Labcyte Inc.) in 2.5-125 nl volume. Trypsinized MG87RET murine fibroblasts were seeded at 20 000 cells/ml (500 cells/well) in the presence of each compound dissolved in DMSO at the indicated concentration. After brief mixing on a horizontal shaker, the plates were centrifuged and transferred into the incubator. Two days (48 hours) after addition of cells to compounds, the viability of the cells was evaluated using CelTiterGlo reagent (Promega).

Series [2] deals with GFRα1/RET-expressing cells. Description: Reporter-gene luciferase activity assay, dose-response (FIG. 5). Particulars: 1-50 μM, 24 h. It counts as cell-based. The protocol: (§1) Generation of stable cell lines. MG87RET murine fibroblast were plated on […] dishes and transfected with 4 μg of G4-Luc, Gal4-Elk (Baloh et al., 2000) and GFRα1 expressing plasmid (“αLUC” cells) or empty vector (“NOα” cells) containing neomycin-resistance gene in ratio 4:1:1 using Lipofectamine 2000 (Invitrogen) for DNA delivery as described by manufacturer. The following day, cells were trypsinized and plated in low density on 10-cm tissue culture dishes. Stable transformants were selected in the presence of 500-750 μg/ml geneticin (Invitrogen). Established cell lines were maintained in DMEM, 10% fetal bovine serum (FBS), 100 μg/ml Normocin (Invivogene), 2 μg/ml of puromycin, 500 μg/ml of geneticin, 15 mM HEPES, pH 7.2. Pathdetect Elk-1 system and human GFRα1-expressing plasmid (“Strat-Luc” cells) or empty vector (control cell line “NOStratis”) cells were selected and maintained in the DMEM, 10% FBS, 100 μg/ml Normocin (Invivogene), 2 μg/ml of puromycin, 500 μg/ml of G418, 2 μg/ml of blasticidin S, 15 mM HEPES, pH 7.2.
(§2) Cells were plated on 96-well plates (or 384-well) in cell density 20 000 (or 5 000 for 384-well format) cells per well in DMEM, 10% FBS, 100 μg/ml Normocin, 2 μg/ml puromycin, 500 μg/ml of G418, 15 mM HEPES, pH 7.2 one day before assay. The following day, the compounds were added to a final concentration of 1-50 μM. Structures of the compounds are shown in the description of FIG. 5, above. Cells were allowed to produce luciferase for 24 h, then lysed in 20 μl of 1×Cell culture lysis reagent (Promega) and freeze-thawed once to ensure complete lysis. Then 5 μl of the lysate was mixed (on ice) with 20 μl of luciferase assay substrate (Promega) in a well of black Isoplate (PerkinElmer). Luminescence was counted on MicroBeta 2 counter (PerkinElmer) twice. Data are presented as fold induction, where the corresponding concentration of DMSO was used as a reference.

In series [3] the test system is RET-expressing reporter cell line (RET alone). Described as above. The following applies: cells expressing RET alone; 1-50 μM, 24 h. It counts as cell-based. On the procedure:
as §1, §2

A further series deals with T1, GFRα1/RET (Homo sapiens, UniProt P07949+P56159).
T1 construct: Full-length human GFRα1 cDNA (Sidorova et al., unpublished) subcloned in pcDNA6; expressed in transfected cells; host or cells: MG87RET murine fibroblasts transiently transfected with GFRα1
Nature of the series: RET phosphorylation by BT compounds, IP and Western blotting (FIG. 6A). It counts as cell-based. The following applies: 100 μM, 15 min; MG87 RET fibroblasts transfected with GFRα1. The protocol: (§3) MG87RET cells were plated on 35 mm tissue culture dishes the day before the experiment. Cells were transfected with GFRα1, GFRα3 or with an vector encoding for GFP. On the day of the experiment cells were starved for 4 hours in serum-free DMEM and stimulated with the investigated compounds (structures shown in the description of FIG. 6, above) at 100 μM concentration or with 100 ng/ml of GDNF or ARTN (positive control) for 15 min. Then cells were washed once with ice-cold PBS containing 1 mM Na3VO4 and lysed on ice in 1 ml per well of RIPA-modified buffer (50 mM Tris-HCl, pH 7.4, 150 mM NaCl, 1 mM EDTA, 1% NP-40, 1% TX-100, 10% glycerol, EDTA-free protease inhibitor cocktail (Roche), 1 mM Na3VO4, 2.5 mg/ml of sodium deoxycholate, 1 mM PMSF. Ret was immunoprecipitated by anti-RET C-20 antibodies (Santa-Cruz Biotechnology, Inc.). Precipitated proteins were resolved on 7.5% SDS-PAGE and then transferred onto a nitrocellulose membrane. Membrane was blocked for 15 min at room temperature by 10% nonfat dry milk in TBS-T and probed with anti-phosphotyrosine antibodies (clone 4G10, Upstate Biotechnology) diluted 1:1000 in TBS-T containing 3% nonfat dry milk for 2 hours at room temperature. The membranes were washed 3 times for 5 min in TBS-T and incubated in the 1:3000 solution of secondary anti-mouse antibodies conjugated with HRP (DAKO) diluted in TBS-T containing 3% nonfat dry milk for 45 min at room temperature. Membranes were washed with TBS-T for 5×10 min. Stained bands were visualized with ECL reagent (Pierce) using LAS3000 imaging program. To confirm equal loading of the proteins, membranes were probed with anti-RET C-20 antibodies (1:500, Santa-Cruz Biotechnology, inc.) after stripping. We used secondary anti-goat antibodies conjugated with HRP (1:1500, DAKO) to detect C-20.
Background: In western blotting, separated proteins are transferred to a membrane and probed.

A further series concerns the target T2, GFRα3/RET (Homo sapiens, UniProt O60609+P07949).
T2 construct: Full-length human GFRα3 cDNA (Wang et al., 2006); expressed in transfected cells; host or cells: MG87RET murine fibroblasts transiently transfected with GFRα3
Nature of the series: RET phosphorylation by BT compounds, IP and Western blotting (FIG. 6B). The following applies: 100 μM, 15 min; MG87 RET fibroblasts transfected with GFRα3. It counts as cell-based. On the procedure:
as §3

Series [4] deals with GFRα3/RET-expressing reporter cell line. Description: Reporter-gene luciferase activity assay, dose-response (FIG. 5). It counts as cell-based, human. The following applies: GFRα3/RET cells; 1-50 μM, 24 h.
Excerpt: Full-length flag-tagged rat Gfrα1 cDNA (Leppänen et al., 2004) subcloned into in pcDNA3 (Invitrogen). Full-length human GFRα1 cDNA (Sidorova et al., unpublished) subcloned in pcDNA6 (Invitrogen). Full-length human GFRα3 cDNA (Wang et al., 2006). Full-length human RET (long isoform) (Runeberg-Roos et al., 2007) in pCR3.1 (Invitrogen). The MAPK activation detection system (Baloh et al., 2000) and PathDetect Elk-1 (Stratagene) both of which include two plasmids. First one constitutively expresses MAPK pathway specific fusion transactivator, that consists of activation domain of Elk-1 and DNA-binding domain of the yeast GAL4 protein (Gal4-Elk1). The other plasmid, Gal4-Luc, carries luciferase gene under the control of a synthetic promoter containing the yeast GAL4 binding sequences.
as §2

T1 sequence (P56159 25-429 limits assumed, species assumed): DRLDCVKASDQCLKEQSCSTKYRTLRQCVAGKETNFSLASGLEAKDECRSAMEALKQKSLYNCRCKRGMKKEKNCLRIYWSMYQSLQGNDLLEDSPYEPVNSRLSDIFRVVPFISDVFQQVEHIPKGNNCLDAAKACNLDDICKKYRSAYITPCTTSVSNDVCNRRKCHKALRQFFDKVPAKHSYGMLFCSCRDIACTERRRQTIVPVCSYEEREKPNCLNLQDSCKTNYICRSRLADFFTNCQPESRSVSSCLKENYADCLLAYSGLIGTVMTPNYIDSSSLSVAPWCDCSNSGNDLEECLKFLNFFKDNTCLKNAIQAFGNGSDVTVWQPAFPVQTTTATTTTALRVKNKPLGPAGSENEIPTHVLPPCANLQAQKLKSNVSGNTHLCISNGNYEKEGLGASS
T1 sequence (P07949 29-1114, species assumed): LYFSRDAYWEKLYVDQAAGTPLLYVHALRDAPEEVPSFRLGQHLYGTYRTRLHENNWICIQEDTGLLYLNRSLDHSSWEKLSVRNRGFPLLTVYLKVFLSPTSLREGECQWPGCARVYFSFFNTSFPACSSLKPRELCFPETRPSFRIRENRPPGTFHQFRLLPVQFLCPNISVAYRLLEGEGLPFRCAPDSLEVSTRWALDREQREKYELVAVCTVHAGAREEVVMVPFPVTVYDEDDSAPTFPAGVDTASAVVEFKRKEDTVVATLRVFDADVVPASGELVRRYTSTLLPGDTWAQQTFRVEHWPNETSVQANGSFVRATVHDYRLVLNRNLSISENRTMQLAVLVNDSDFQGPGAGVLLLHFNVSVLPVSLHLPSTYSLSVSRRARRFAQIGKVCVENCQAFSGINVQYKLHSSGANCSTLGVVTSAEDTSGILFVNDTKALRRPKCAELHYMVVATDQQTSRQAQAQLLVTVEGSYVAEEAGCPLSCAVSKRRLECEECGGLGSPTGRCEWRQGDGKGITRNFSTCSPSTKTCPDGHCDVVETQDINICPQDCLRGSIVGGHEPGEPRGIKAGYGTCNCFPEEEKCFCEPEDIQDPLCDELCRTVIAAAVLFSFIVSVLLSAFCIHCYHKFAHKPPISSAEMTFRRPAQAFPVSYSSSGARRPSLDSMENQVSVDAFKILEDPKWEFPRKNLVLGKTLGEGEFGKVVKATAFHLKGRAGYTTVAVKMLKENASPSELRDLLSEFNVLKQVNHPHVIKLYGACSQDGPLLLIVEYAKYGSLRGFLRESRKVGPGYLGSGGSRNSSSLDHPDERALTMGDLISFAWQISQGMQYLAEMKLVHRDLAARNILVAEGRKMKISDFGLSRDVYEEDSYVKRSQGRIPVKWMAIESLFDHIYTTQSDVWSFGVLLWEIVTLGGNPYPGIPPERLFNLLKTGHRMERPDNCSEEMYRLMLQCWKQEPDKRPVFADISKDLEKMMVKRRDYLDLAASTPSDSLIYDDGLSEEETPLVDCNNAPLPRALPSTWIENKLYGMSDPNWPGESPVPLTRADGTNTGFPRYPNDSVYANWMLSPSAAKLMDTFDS
T2 sequence (O60609 32-374 limits assumed): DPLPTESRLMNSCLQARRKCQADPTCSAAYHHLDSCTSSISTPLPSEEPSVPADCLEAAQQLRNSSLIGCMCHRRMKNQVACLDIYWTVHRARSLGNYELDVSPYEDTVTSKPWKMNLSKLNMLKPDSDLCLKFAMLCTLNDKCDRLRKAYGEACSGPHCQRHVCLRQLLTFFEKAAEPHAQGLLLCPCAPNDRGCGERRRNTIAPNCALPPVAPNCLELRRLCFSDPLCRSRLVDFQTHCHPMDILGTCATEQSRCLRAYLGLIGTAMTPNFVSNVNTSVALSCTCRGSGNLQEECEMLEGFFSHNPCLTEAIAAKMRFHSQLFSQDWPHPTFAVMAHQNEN
T2 sequence (P07949 29-1114): as the sequence (P07949 29-1114, species assumed) above

`CCN(CC)CCCC(C)Nc1cc(/C=C/c2ccccc2Cl)nc2cc(Cl)ccc12` (stereo not drawn) [BT10]: the “toxicity (cell viability)” value in series [1] was “significant toxicity”.
For the molecule `COc1ccc(S(=O)(=O)N2CCC(Cc3ccccc3)CC2)cc1N1CCN(C(=O)c2cc(F)ccc2C(F)(F)F)CC1` [BT17], the “induction of luciferase expression” value is on record as “in a dose-dependent manner induce luciferase expression” in series [2], “No significant effect” in series [3] and “in a dose-dependent manner induce luciferase expression” in series [4]. In addition, on GFRα1/RET, the “RET phosphorylation via GFRα1” value is recorded as “likely the weaker GFRα1/RET agonists”. In addition, on GFRα3/RET, the “RET phosphorylation via GFRα3” value is “likely the weaker GFRα3/RET agonists”.
